Assay results published in patent publication US6472390B1, “Use of therapeutic dosages for nitric oxide donors which do not significantly lower blood pressure or pulmonary artery pressure” (Duke University, priority 2001, dated 2002).

Key:
[1] = test system: patient with anxiety and stress; assay: patient with anxiety and stress (Example XVIII); type: in vivo, human; conditions: ½ to 1 inch patch 3×/day titrated to avoid change in blood pressure or headache
[2] = test system: patient with a transient ischemic attack; assay: patient with transient ischemic attack (Example XIII); type: in vivo, human
Protocol: A person presents with a transient ischemic attack evidenced by confusion and headache. Carotid dopplers show 98% new occlusion of the right carotid artery. Systolic blood pressure is 180 mm of mercury. They are given an infusion intravenously of S-nitrosocysteinyl glycine 10 μg with resolution of the headache. The systemic blood pressure remains 175 mm of mercury. Symptoms of headache and confusion resolve. The patient is then maintained on oral S-nitrosoglutathione 1-10 μg 3×/day with no recurrence of transient ischemic symptoms.

[3] = test system: patient receiving erythropoietin who develops chest pain; assay: patient on erythropoietin with chest pain, thiol (Example XXI); type: in vivo, human
Excerpt: A person receiving erythropoietin to raise red blood count depleted by renal failure, develops chest pain (caused by increased concentration of red blood cells).

[4] = test system: mouse aorta rings; assay: vascular ring bioassay on mouse aorta rings (Example I)
Excerpt: The assay involves a chamber of solution into which mouse aorta ring attached to a force transducer is placed where the solution is bubbled with 21% O2/5% CO2/balance N2. The force transducer moves a pen in response to contraction and relaxation effects to give a tracing of forces (tension) in the Y-direction versus time in the X-direction on a chart. Various agents as described later are applied to the aorta rings to give to give contraction and relaxation effects. Tracings of force (tension) in the Y-direction versus time in the X-direction are obtained with upward direction indicating contraction and downward direction indicating relaxation. […] On FIG. 1, “E” means application of phenylephrine, a constricting agent, and the concentrations thereof at particular times are denoted; “ACh” means application of acetyIcholine (which causes a relaxation effect in response to endogenous nitric oxide) and the concentration thereof at particular times are denoted; and “GSNO” means application of S-nitrosoglutathione, an NO donor, and the concentrations thereof at particular times are denoted. […] As further shown in FIG. 1, flushing is then carried out three times then and one more time; the flushing is carried out (with Krebs-Henseleit solution described hereinafter in Example III) and removes the acetylcholine. As further shown in FIG. 1, phenylephrine is then applied starting at a concentration of 10^−7 molar increasing to a concentration of 10^−5.5 molar. […] As further shown in FIG. 1, flushing is then carried out three times (with Krebs-Henseleit solution); and then one more time with the same flushing agent; this flushing removes the S-nitrosoglutathione.

[5] = test system: rats; assay: infusion into rats, mean arterial blood pressure and heart rate (Example IV); type: in vivo, rat
Protocol: Rats (n=4) were infused via femoral vein with 200 nmol/kg of S-nitrosothiol (S-nitrosohemoglobin). Mean arterial blood pressure (MAP) and heart rate (HR) were measured.
In another case, rats (n=4) were infused via femoral artery with 200 nmol/kg of S-nitrosothiol (S-nitrosohemoglobin). Mean arterial blood pressure (MAP) and heart rate (HR) were measured.

[6] = test system: patient with recurrent episodes of acute vasospastic angina; assay: patient with acute vasospastic angina (Example VII); type: in vivo, human
Protocol: A person who complains of recurrent episodes of acute vasospastic angina is treated with S-nitrosoglutathione (GSNO) at 1-1,000 μg orally 4×/day. Blood pressure is unchanged and acute symptoms resolve. In addition, the frequency of vasospastic chest pain decreases over the following three weeks.

[7] = test system: patient with uncontrolled hypertension; assay: patient with uncontrolled hypertension (Example XVI); type: in vivo, human; conditions: for exacerbation on maintenance: maintained on GSNO together with ethyl nitrite; for blood pressure (acute): oral GSNO 1 to 10 micrograms QID together with ethyl nitrite 0.025% (1 cc) 3×/day; for blood pressure (acute) / blood pressure: baseline 200/110; for blood pressure: over the following two weeks, GSNO together with ethyl nitrite
Excerpt: A person with uncontrolled hypertension of 200/90 mm of mercury on a complex medical regimen including angiotension converting enzyme inhibitor, an alpha blocker, and beta blocker has a blood pressure of 200/110. They are begun on oral GSNO at 1 to 10 micrograms QID and ethyl nitrite 0.025% (1 cc) 3×/day. […] However, over the following two weeks the blood pressure falls to 170/100 consistent with better management of their disease.

[8] = test system: patient with claudication and a leg ulcer; assay: patient with claudication and leg ulcer (Example XV); type: in vivo, human
Protocol: A person with risk factors of hypertension, diabetes, and hypercholestolemia and a strong family history of atherosclerosis presents with claudication and a leg ulcer. They are begun on an infusion of (SIN-1) 0.3 μm/kg per hour for a total of 1 mg with no change in blood pressure. Symptoms of rest pain resolve. They are then begun on oral S-nitrosoglutathione 1-10 μg 3×/day with improvement of duration of exercise and no recurrence of rest pain.

[9] = test system: artery rings from New Zealand white rabbits; assay: vascular ring bioassay on rabbit artery rings (Example II); conditions: NO donor 1 μM
Protocol: A vascular ring bioassay was carried out as follows: Artery rings (3 mm) were harvested from New Zealand white rabbits and mounted in 25 ml tissue baths filled with Krebs-Henseleit buffer and bubbled with 21% O2/5% CO2/balance N2. Isometric tension was measured. All rings in the study were suspended with similar baseline levels of tension (˜2 g). Tissue baths were thoroughly rinsed with fresh buffer between interventions. Three runs were carried out. In one run denoted the control, no additive was added. […] In a third run, SIN1 was added to provide a concentration of 1 μM. […] After flushing with solution as described in Example I, phenylephrine was then added in each case to provide a concentration of 1 to 10 μM. The results are shown in FIG. 2 where percent increase in tone is indicated on the Y-axis and additive or absence thereof (control) is indicated on the X-axis.

[10] = test system: patient with poorly controlled asthma; assay: patient with poorly controlled asthma (Example IX); type: in vivo, human
Excerpt: A person with poorly controlled asthma presents with an exacerbation. […] The frequency of asthma exacerbations decline.

[11] = test system: patient with congestive heart failure, hypotension and angina; assay: patient with congestive heart failure, hypotension and angina, intraarterial infusion (Example XIX); type: in vivo, human; conditions: 200 nmol/kg via the brachial artery over 3 minutes
Protocol: A person with congestive heart failure develops hypotension and angina. S-nitrosoglutathione (200 nmol/kg) is infused via the brachial artery over 3 minutes. The angina resolves. The systolic blood pressure rises from 85 mm Hg to 100 mm Hg.

[12] = test system: patient with severe three vessel disease; assay: patient with severe three vessel coronary disease (Example XVII); type: in vivo, human; conditions: oral, titrated so that resting systolic blood pressure does not change; three years
Excerpt: They do well with no symptoms of coronary disease over the following three years.

[13] = test system: platelets; conditions: doses that do not acutely drop blood pressure; cited from earlier work
[14] = test system: patient with primary pulmonary hypertension class II; assay: patient with primary pulmonary hypertension (Example VIII); type: in vivo, human
Protocol: […] They are given 10 mM GSNO in 1 cc saline nebulized 3×/day. Symptoms of shortness of breath resolve but pulmonary artery pressure and systemic pressure are unchanged with acute administration. After four months of therapy, pulmonary artery pressure has dropped by 5 mm of mercury and the patient's symptoms have improved. The patient is subsequently given oral GSNO at 10 μg TID and doses are empirically changed to prevent any significant change in blood pressure.

[15] = test system: isolated buffer-perfused lungs (IPL) of rabbits; assay: isolated buffer-perfused rabbit lung, pulmonary artery pressure (Example III); conditions: for change in mean pulmonary artery pressure (Ppa) on injection of NO donor: GSNO 50 μM or SIN1 100 μM injected into the recirculating system; for constriction (change in Ppa) by serotonin: serotonin 1 micromolar sixty minutes after GSNO 50 μM or SIN1 100 μM
[16] = test system: patient with esophageal spasm; assay: patient with esophageal spasm (Example XI); type: in vivo, human
Excerpt: A alcoholic with esophageal spasm is given 2 cc of 0.125% ethyl nitrite in ethanol 3×/day.

[17] = test system: infant with pyloric stenosis; assay: infant with pyloric stenosis (Example XII); type: in vivo, human; conditions: 2 cc of 0.125% in ethanol 3×/day
Excerpt: An infant with pyloric stenosis is given 2 cc of 0.125% ethyl nitrite in ethanol 3×/day.
Symptoms of intestinal pain resolve.

[18] = test system: patient with recurrent rectal spasm; assay: patient with recurrent rectal spasm (Example X); type: in vivo, human
Excerpt: A person with recurrent rectal spasm is given oral ethyl nitrite 0.125% in ethanol (1 cc) 3×/day. […] They then continued on this therapy with a decrease in incidence of rectal pain.

[19] = test system: dogs; assay: systemic infusion of NO donor into dogs, systemic blood pressure (Example VI); type: in vivo, dog; conditions: without and with ischemia, S-nitrosocysteine 3 nmol/kg or S-nitrosoalbumin 10 nmol/kg infused systemically
Excerpt: In another case, S-nitrosocysteine (3 nmol/kg) or S-nitrosoalbumin (10 nmol/kg) is infused systemically into dogs. […] The response to S-nitrosoalbimim infusion is no different. The infusions of NO donors result in reaction with membrane receptors in red blood cells.

[20] = test system: patient receiving erythropoietin who develops chest pain; assay: patient on erythropoietin with chest pain, NO donor infusion (Example XX); type: in vivo, human; conditions: infusion 1-10 nmolkg/min
Excerpt: A person receiving erythropoietin to raise red blood count depleted because of treatment for cancer or renal failure, develops chest pain (caused by increased concentration of red blood cells).

[21] = regardless of dosage; cited from earlier work
[22] = test system: patient with symptoms of depression; assay: patient with depression (Example XIV); type: in vivo, human
Protocol: A person presents with symptoms of depression. They are begun on oral molsidomine (SIN-1) 10 μg per kg dose-adjusted so that blood pressure is unchanged. Over the following three weeks the symptoms of depression resolve and the patient is maintained on this dose with no recurrence.

[23] = 200 nmol/kg via femoral artery, rats
[24] = 200 nmol/kg via femoral vein, rats
[25] = oral 0.125% in ethanol (1 cc) 3×/day
[26] = infusion 0.3 μm/kg per hour for a total of 1 mg

Compound: O=[N+]([O-])OCC(CO[N+](=O)[O-])O[N+](=O)[O-] [nitroglycerin]
- symptoms of anxiety and stress [1]: alleviated in 4 days

Compound: N[C@@H](CSN=O)C(=O)NCC(=O)O [S-nitrosocysteinyl glycine]
- systemic blood pressure ([2]; after intravenous infusion 10 μg, systolic 180 mm of mercury before): 175 mm of mercury
- symptoms of headache and confusion ([2]; intravenous infusion 10 μg): resolve

Compound: CC(=O)N[C@@H](CS)C(=O)O [N-acetylcysteine]
- frequency of angina ([3]; 600 ng, PO, TID): decreases
- blood pressure ([3]; 600 ng, PO, TID, over three weeks): drops
- blood pressure ([3]; infusion 50 ng/kg): without a change
- chest pain ([3]; infusion 50 ng/kg): alleviating their chest pain

Compound: CNC[C@H](O)c1cccc(O)c1 [phenylephrine]
- effect on tension of ring ([4]; phenylephrine 10^-8 molar increasing to 10^-5.5 molar): contracting effect

Compound: S-nitrosohemoglobin
- heart rate [5, 23]: increased
- mean arterial blood pressure [5, 23]: increased
- heart rate [5, 24]: no effect
- resting blood pressure (MAP) [5, 24]: no effect
- blood pressure ([5]; higher doses of S-nitrosothiol): fall

Compound: N[C@@H](CCC(=O)N[C@@H](CSN=O)C(=O)NCC(=O)O)C(=O)O [GSNO, S-nitrosoglutathione]
- acute symptoms of vasospastic angina ([6]; 1-1,000 μg orally 4×/day): resolve
- blood pressure ([6]; 1-1,000 μg orally 4×/day): unchanged
- frequency of vasospastic chest pain ([6]; over the following three weeks): decreases
- exacerbation on maintenance [7]: no further exacerbation
- blood pressure (acute) [7]: does not change
- blood pressure [7]: 170/100
- duration of exercise ([8]; oral 1-10 μg 3×/day): improvement
- recurrence of rest pain ([8]; oral 1-10 μg 3×/day): no recurrence
- effect on resting tone (relaxing effect) [9]: no effect on resting tone
- frequency of asthma exacerbations ([10]; oral 10 μg Q 6 hours, continued): decline
- angina [11]: resolves
- systolic blood pressure after infusion ([11]; rises from 85 mm Hg): 100 mm Hg
- symptoms of coronary disease [12]: no symptoms
- recurrence of transient ischemic symptoms ([2]; oral 1-10 μg 3×/day maintenance): no recurrence
- thromboembolic events [13]: inhibit other thromboembolic events
- symptoms of shortness of breath ([14]; 10 mM in 1 cc saline nebulized 3×/day): resolve
- pulmonary artery pressure and systemic pressure ([14]; acute administration, 10 mM in 1 cc saline nebulized): unchanged
- drop of pulmonary artery pressure ([14]; after four months of therapy): 5 mm of mercury
- patient's symptoms ([14]; after four months of therapy): improved
- change in mean pulmonary artery pressure (Ppa) on injection of NO donor [15]: did not cause change in Ppa
- constriction (change in Ppa) by serotonin [15]: prevented constriction
- effect on tension of phenylephrine-contracted ring ([4]; S-nitrosoglutathione 1 nanomolar increasing to 10 micromolar): relaxing (contraction-attenuating) effect
- contracting response to phenylephrine after pretreatment and flushing ([4]; phenylephrine 10^-7 to 10^-5 molar after S-nitrosoglutathione removed by flushing): does not cause a contracting response

Compound: CCON=O [ethyl nitrite]
- exacerbation on maintenance [7]: no further exacerbation
- blood pressure (acute) [7]: does not change
- blood pressure [7]: 170/100
- symptoms of esophageal pain ([16]; 2 cc of 0.125% in ethanol 3×/day): resolve
- recurrence of symptoms ([16]; same maintenance dose): do not recur
- symptoms of intestinal pain [17]: resolve
- incidence of rectal pain ([18]; continued therapy): decrease
- blood pressure [18, 25]: does not change
- symptoms of rectal pain [18, 25]: resolve

Compound: N[C@@H](CSN=O)C(=O)O [S-nitrosocysteine]
- systemic blood pressure [19]: no effect

Compound: CCOC(=O)[C@@H](N)CSN=O [S-nitrosocysteine ethyl ester]
- blood pressure [20]: without a change
- chest pain [20]: alleviating chest pain
- airway tone ([10]; inhaled 1-1,000 μg nebulized in 10 cc): does not significantly improve
- acute episode of asthma ([10]; over the following three days): brought under control

Compound: O=C(Oc1cccc(CO[N+](=O)[O-])c1)c1ccccc1O [B-NOD, 2-hydroxybenzoic acid 3-nitrooxymethylphenyl ester]
- acute lowering of mean arterial blood pressure [21]: ≤ 10%

Compound: CCOC(=O)[N-]c1cn(N2CCOCC2)n[o+]1 [SIN1, molsidomine]
- blood pressure [8, 26]: no change
- symptoms of rest pain [8, 26]: resolve
- effect on resting tone (relaxing effect) [9]: did not cause a relaxing effect
- recurrence of depression ([22]; maintained on this dose): no recurrence
- symptoms of depression ([22]; oral 10 μg per kg dose-adjusted so that blood pressure is unchanged, over three weeks): resolve
- change in mean pulmonary artery pressure (Ppa) on injection of NO donor [15]: did not cause change in Ppa
- constriction (change in Ppa) by serotonin [15]: prevented constriction
